Experimental data: patent publication US11098010B2 (priority 2017, dated 2021)
Structures can show the parent of a compound that is named as a salt. Where two headings read alike, the source gives them in different places.

Test system: HBV rcDNA in HepDE19 cells
Assay: HepDE19 assay with bDNA quantitation of HBV rcDNA
Format: cell-based, hepatitis B virus (HBV)
Description: HepDE19 Assay with bDNA Quantitation of HBV rcDNA:
HepDE19 cell culture system is a HepG2 (human hepatocarcinoma) derived cell line that supports HBV DNA replication and cccDNA formation in a tetracycline (Tet)-regulated manner and produces HBV rcDNA and a detectable reporter molecule dependent on the production and maintenance of cccDNA (Guo, et al., 2007, J. Virol. 81:12472-12484).
HepDE19 (50,000 cells/well) were plated in 96-well collagen-coated tissue-culture treated microtiter plates in DMEM/F12 medium supplemented with 10% fetal bovine serum, 1% penicillin-streptomycin and 1 μg/mL tetracycline and incubated in a humidified incubator at 37° C. and 5% CO2 overnight. Next day, the cells were switched to fresh medium without tetracycline and incubated for 4 hours at 37° C. and 5% CO2. The cells were treated with fresh Tet-free medium with compounds at concentrations starting at 25 μM and a serial, ½ log, 8-point, titration series in duplicate. The final DMSO concentration in the assay was 0.5%. The plates were incubated for 7 days in a humidified incubator at 37° C. and 5% CO2. Following a 7 day-incubation, the level of rcDNA present in the inhibitor-treated wells was measured using a Quantigene 2.0 bDNA assay kit (Affymetrix, Santa Clara, Calif.) with HBV specific custom probe set and manufacturers instructions. Concurrently, the effect of compounds on cell viability was assessed using replicate plates, plated at a density of 5,000 cells/well and incubated for 4 days, to determine the ATP content as a measure of cell viability using the cell-titer glo reagent (CTG; Promega Corporation, Madison, Wis.) as per manufacturer's instructions. The plates were read using a Victor luminescence plate reader (PerkinElmer Model 1420 Multilabel counter) and the relative luminescence units (RLU) data generated from each well was calculated as % inhibition of the untreated control wells and analyzed using XL-Fit module in Microsoft Excel to determine EC50 and EC90 (bDNA) and CC50 (CTG) values using a 4-parameter curve fitting algorithm.
Representative compounds of the invention were tested for their abilities to inhibit formation of relaxed circular DNA (rcDNA) in a HepDE19 assay, as described elsewhere herein.

[1] = Hepatitis B virus, HepDE19, 168 h, HepDE19 cells, inhibition of rcDNA formation, 7 day incubation, top concentration 25 μM, read-out: DE-19 bDNA EC50
[2] = read-out: DE-19 bDNA EC50, HepDE19 cells, inhibition of rcDNA formation, 7 day incubation, top concentration 25 μM
[3] = HepDE19 cells, inhibition of rcDNA formation, 7 day incubation, top concentration 25 μM, read-out: DE-19 bDNA EC50

O=C(Nc1ccc(F)c(Cl)c1)c1cncc2c1CCC2NS(=O)(=O)C1CC1 (racemic) [Compound 268, N-(3-Chloro-4-fluorophenyl)-7-(cyclopropanesulfonamido)-6,7-dihydro-5H-cyclopenta[c]pyridine-4-carboxamide]
EC50 [1]: 8.2 µM

CNC(=O)NC1COc2c(C(=O)Nc3ccc(F)c(F)c3)cccc21 (single isomer, unassigned) [Compound 7, N-(3,4-difluorophenyl)-3-(3-methylureido)-2,3-dihydrobenzofuran-7-carboxamide]
EC50 [2]: 1.9 µM

CNC(=O)NC1COc2c(C(=O)Nc3ccc(F)c(F)c3)cccc21 (single isomer, unassigned) [Compound 8, N-(3,4-difluorophenyl)-3-(3-methylureido)-2,3-dihydrobenzofuran-7-carboxamide]
EC50 [2]: 23 µM

COC(=O)NC1CSc2c(C(=O)Nc3ccc(F)c(F)c3)cccc21 (single isomer, unassigned) [Compound 30, O-Methyl, N-(7-((3,4-difluorophenyl)carbamoyl)-2,3-dihydrobenzo[b]thiophen-3-yl)carbamate]
EC50 [2]: 1.8 µM

COC(=O)NC1CSc2c(C(=O)Nc3ccc(F)c(F)c3)cccc21 (single isomer, unassigned) [Compound 31, O-Methyl, N-(7-((3,4-difluorophenyl)carbamoyl)-2,3-dihydrobenzo[b]thiophen-3-yl)carbamate]
EC50 [2]: > 25 µM

O=C(NC1CSc2c(C(=O)Nc3ccc(F)c(F)c3)cccc21)OCc1ccccn1 (single isomer, unassigned) [Compound 33, O-Pyridin-2-ylmethyl, N-(7-((3,4-difluorophenyl)carbamoyl)-2,3-dihydrobenzo[b]thiophen-3-yl) carbamate hydrochloride]
EC50 [1]: 1.1 µM

O=C(NC1CSc2c(C(=O)Nc3ccc(F)c(F)c3)cccc21)OCc1ccccn1 (single isomer, unassigned) [Compound 34, O-Pyridin-2-ylmethyl, N-(7-((3,4-difluorophenyl)carbamoyl)-2,3-dihydrobenzo[b]thiophen-3-yl)carbamate hydrochloride]
EC50 (read-out: DE-19 bDNA EC50, HepDE19 cells, inhibition of rcDNA formation, 7 day incubation, top concentration 25 μM, hydrochloride): > 25 µM

COC(=O)NC1CSc2c(C(=O)Nc3ccc(F)c(Cl)c3)cccc21 (single isomer, unassigned) [Compound 38, O-Methyl, N-(7-((3-chloro-4-fluorophenyl)carbamoyl)-2,3-dihydrobenzo[b]thiophen-3-yl) carbamate]
EC50 (Hepatitis B virus, HepDE19, 168 h, read-out: DE-19 bDNA EC50 (μM), HepDE19 cells, inhibition of rcDNA formation, 7 day incubation, top concentration 25 μM): > 25 µM

CNC(=O)NC1c2c(F)ccc(C(=O)Nc3ccc(F)c(Cl)c3)c2CC1(C)C (single isomer, unassigned) [Compound 134, N-(3-Chloro-4-fluorophenyl)-7-fluoro-2,2-dimethyl-1-(3-methylureido)-2,3-dihydro-1H-indene-4-carboxamide]
EC50 [2]: 0.36 µM

CNC(=O)NC1COc2c(C(=O)Nc3ccc(F)c(Cl)c3)ccc(F)c21 (single isomer, unassigned) [Compound 189, N-(3-Chloro-4-fluorophenyl)-4-fluoro-3-(3-methylureido)-2,3-dihydrobenzofuran-7-carboxamide]
EC50 [2]: 0.45 µM

CNC(=O)NC1COc2c(C(=O)Nc3ccc(F)c(Cl)c3)ccc(F)c21 (single isomer, unassigned) [Compound 190, N-(3-Chloro-4-fluorophenyl)-4-fluoro-3-(3-methylureido)-2,3-dihydrobenzofuran-7-carboxamide]
EC50 [2]: > 25 µM

O=C(NC1COc2c(C(=O)Nc3ccc(F)c(Cl)c3)ccc(F)c21)OCc1ccccn1 (single isomer, unassigned) [Compound 191, O-Pyridin-2-ylmethyl, N-(7-((3-chloro-4-fluorophenyl)carbamoyl)-4-fluoro-2,3-dihydrobenzofuran-3-yl)carbamate]
EC50 [2]: 18 µM

O=C(NC1COc2c(C(=O)Nc3ccc(F)c(Cl)c3)ccc(F)c21)OCc1ccccn1 (single isomer, unassigned) [Compound 192, O-Pyridin-2-ylmethyl, N-(7-((3-chloro-4-fluorophenyl)carbamoyl)-4-fluoro-2,3-dihydrobenzofuran-3-yl)carbamate]
EC50 [2]: 0.31 µM

CNC(=O)NC1COc2c(C(=O)Nc3ccc(F)c(C)c3)ccc(F)c21 (single isomer, unassigned) [Compound 203, 4-Fluoro-N-(4-fluoro-3-methylphenyl)-3-(3-methylureido)-2,3-dihydrobenzofuran-7-carboxamide]
EC50 [2]: > 25 µM

CNC(=O)NC1COc2c(C(=O)Nc3ccc(F)c(C)c3)ccc(F)c21 (single isomer, unassigned) [Compound 204, 4-Fluoro-N-(4-fluoro-3-methylphenyl)-3-(3-methylureido)-2,3-dihydrobenzofuran-7-carboxamide]
EC50 [2]: 0.2 µM

Cc1cc(NC(=O)c2ccc(F)c3c2OCC3NC(=O)OCc2ccccn2)ccc1F (single isomer, unassigned) [Compound 206, O-Pyridin-2-ylmethyl, N-(4-fluoro-7-((4-fluoro-3-methylphenyl)carbamoyl)-2,3-dihydrobenzofuran-3-yl)carbamate]
EC50 [1]: 0.41 µM

O=C(Nc1ccc(F)c(Cl)c1)c1ccc(F)c2c1OCC2NS(=O)(=O)C1CC1 (single isomer, unassigned) [Compound 207, N-(3-chloro-4-fluorophenyl)-3-(cyclopropanesulfonamido)-4-fluoro-2,3-dihydrobenzofuran-7-carboxamide]
EC50 [3]: 14 µM

O=C(Nc1ccc(F)c(Cl)c1)c1ccc(F)c2c1OCC2NS(=O)(=O)C1CC1 (single isomer, unassigned) [Compound 208, N-(3-chloro-4-fluorophenyl)-3-(cyclopropanesulfonamido)-4-fluoro-2,3-dihydrobenzofuran-7-carboxamide]
EC50 [3]: 0.11 µM

CNC(=O)NC1c2c(F)ccc(C(=O)Nc3ccc(F)c(Cl)c3)c2CC1(F)F (single isomer, unassigned) [Compound 211, N-(3-chloro-4-fluorophenyl)-2,2,7-trifluoro-1-(3-methylureido)-2,3-dihydro-1H-indene-4-carboxamide]
EC50 [1]: 6.9 µM

CNC(=O)NC1(C)CCc2c(C(=O)Nc3ccc(F)c(Cl)c3)ccc(F)c21 (single isomer, unassigned) [Compound 215, N-(3-Chloro-4-fluorophenyl)-7-fluoro-1-methyl-1-(3-methylureido)-2,3-dihydro-1H-indene-4-carboxamide]
EC50 [1]: 3.8 µM

CNC(=O)NC1(C)CCc2c(C(=O)Nc3ccc(F)c(Cl)c3)ccc(F)c21 (single isomer, unassigned) [Compound 223, N-(3-chloro-4-fluorophenyl)-7-fluoro-1-methyl-1-(3-methylureido)-2,3-dihydro-1H-indene-4-carboxamide]
EC50 [3]: 4.52 µM

CNC(=O)NC1c2c(F)ccc(C(=O)Nc3ccc(F)c(Cl)c3)c2CC1(C)C (single isomer, unassigned) [Compound 249, N-(3-Chloro-4-fluorophenyl)-7-fluoro-2,2-dimethyl-1-(3-methylureido)-2,3-dihydro-1H-indene-4-carboxamide]
EC50 [2]: 13 µM

O=C1NC(=O)C2(CCc3c(C(=O)Nc4ccc(F)c(Cl)c4)ccc(F)c32)N1 (single isomer, unassigned) [Compound 257, N-(3-chloro-4-fluoro-phenyl)-7′-fluoro-2,5-dioxo-spiro[imidazolidine-4,1′-indane]-4′-carboxamide]
EC50 [3]: > 25 µM

O=C1NC(=O)C2(CCc3c(C(=O)Nc4ccc(F)c(Cl)c4)ccc(F)c32)N1 (single isomer, unassigned) [Compound 258, N-(3-chloro-4-fluoro-phenyl)-7′-fluoro-2,5-dioxo-spiro [imidazolidine-4,1′-indane]-4′-carboxamide]
EC50 [3]: 0.57 µM

CN1C(=O)NC2(CCc3c(C(=O)Nc4ccc(F)c(Cl)c4)ccc(F)c32)C1=O (single isomer, unassigned) [Compound 261, N-(3-chloro-4-fluoro-phenyl)-7′-fluoro-1-methyl-2,5-dioxo-spiro [imidazolidine-4,1′-indane]-4′-carboxamide]
EC50 [3]: 2.7 µM

CN1C(=O)NC2(CCc3c(C(=O)Nc4ccc(F)c(Cl)c4)ccc(F)c32)C1=O (single isomer, unassigned) [Compound 262, N-(3-chloro-4-fluoro-phenyl)-7′-fluoro-1-methyl-2,5-dioxo-spiro [imidazolidine-4,1′-indane]-4′-carboxamide]
EC50 [3]: 14 µM
